The source of these data is US5432261A, “Motlin-like polypeptide and use thereof” (priority 1989, dated 1995).

Like-named read-outs stand apart in the source and are kept apart here. Square brackets hold non-standard residues; d marks the D form. Peptide text beside a SMILES is read from it. hSer = N[C@@H](CCO)C(=O)O

For the experiment, the target named is upper small intestine of rabbit (Oryctolagus cuniculus, UniProt G1T803). The experiment is described as follows: Intestinal contraction activity by Magnus method using upper small intestine of rabbit. The procedure: An intestinal contraction activity was measured by Magnus method using upper small intestine of rabbit ["J. Pharm. Pharmac.", Vol. 28, pages 650-651 (1976)], on each motilin-like polypeptides (Example 1, wherein R1 is Hse, Asp-Gly-Ile-Phe-Hse, or Arg-Ile-Phe-Hse) according to the invention, as test samples and a conventional pure [Leu^13 ]-motilin, as control sample. The activities of the test samples and control sample were compared, under assumption of that an contraction activity caused by 10^-6 M acetylcholine is 100%.
upper small intestine of rabbit, sequence (G1T803 1-400): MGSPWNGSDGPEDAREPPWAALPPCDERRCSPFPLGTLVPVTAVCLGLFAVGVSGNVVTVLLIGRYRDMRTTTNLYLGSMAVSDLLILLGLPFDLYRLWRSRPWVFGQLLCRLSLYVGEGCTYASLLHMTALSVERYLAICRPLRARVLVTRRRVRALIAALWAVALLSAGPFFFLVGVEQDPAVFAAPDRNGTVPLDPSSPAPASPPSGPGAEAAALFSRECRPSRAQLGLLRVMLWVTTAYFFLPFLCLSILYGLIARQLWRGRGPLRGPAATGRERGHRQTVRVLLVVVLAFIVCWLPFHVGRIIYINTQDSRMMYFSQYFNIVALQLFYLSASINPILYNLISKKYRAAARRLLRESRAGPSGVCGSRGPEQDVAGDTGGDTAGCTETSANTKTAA

Consider `CC[C@H](C)[C@H](NC(=O)[C@H](CCC(=O)O)NC(=O)CNC(=O)[C@H](Cc1ccc(O)cc1)NC(=O)[C@@H](NC(=O)[C@H](Cc1ccccc1)NC(=O)[C@@H](NC(=O)[C@@H]1CCCN1C(=O)[C@@H](NC(=O)[C@@H](N)Cc1ccccc1)C(C)C)[C@@H](C)CC)[C@@H](C)O)C(=O)N[C@@H](CCC(N)=O)C(=O)N[C@@H](CCCNC(=N)N)C(=O)N[C@@H](CC(C)C)C(=O)N[C@@H](CCC(N)=O)C(=O)N[C@@H](CCC(=O)O)C(=O)N[C@@H](CCCCN)C(=O)N[C@@H](CCC(=O)O)C(=O)N[C@@H](CCCNC(=N)N)C(=O)N[C@@H](CC(N)=O)C(=O)N[C@@H](CCCCN)C(=O)NCC(=O)N[C@@H](CCC(N)=O)C(=O)N[C@@H](CCO)C(=O)O` [(10) -Ile--Leu--Hse] (H-FVPIFTYGEIQRLQEKERNKGQ[hSer]-OH), for which the “Activity in vitro (%)” value is 110%.
Consider `CC[C@H](C)[C@H](NC(=O)[C@@H]1CCCN1C(=O)[C@@H](NC(=O)[C@@H](N)Cc1ccccc1)C(C)C)C(=O)N[C@@H](Cc1ccccc1)C(=O)N[C@H](C(=O)N[C@@H](Cc1ccc(O)cc1)C(=O)NCC(=O)N[C@@H](CCC(=O)O)C(=O)N[C@@H](CC(C)C)C(=O)N[C@@H](CCC(=O)O)C(=O)N[C@@H](CCCNC(=N)N)C(=O)N[C@@H](CC(C)C)C(=O)N[C@@H](CCC(N)=O)C(=O)N[C@@H](CCC(=O)O)C(=O)N[C@@H](CCCCN)C(=O)N[C@@H](CCC(=O)O)C(=O)N[C@@H](CCCNC(=N)N)C(=O)N[C@@H](CC(N)=O)C(=O)N[C@@H](CCCCN)C(=O)NCC(=O)N[C@@H](CCC(N)=O)C(=O)N[C@@H](CCO)C(=O)O)[C@@H](C)O` [(11) -Glu--Leu--Hse] (H-FVPIFTYGELERLQEKERNKGQ[hSer]-OH), for which the “Activity in vitro (%)” value was 110%.
As for `CC[C@H](C)[C@H](NC(=O)[C@@H]1CCCN1C(=O)[C@@H](NC(=O)[C@@H](N)Cc1ccccc1)C(C)C)C(=O)N[C@@H](Cc1ccccc1)C(=O)N[C@H](C(=O)N[C@@H](Cc1ccc(O)cc1)C(=O)NCC(=O)N[C@@H](CCC(=O)O)C(=O)N[C@@H](CC(C)C)C(=O)N[C@@H](CCC(N)=O)C(=O)N[C@@H](CCCNC(=N)N)C(=O)N[C@@H](CCSC)C(=O)N[C@@H](CCC(N)=O)C(=O)N[C@@H](CCC(=O)O)C(=O)N[C@@H](CCCCN)C(=O)N[C@@H](CCC(=O)O)C(=O)N[C@@H](CCCNC(=N)N)C(=O)N[C@@H](CC(N)=O)C(=O)N[C@@H](CCCCN)C(=O)NCC(=O)N[C@@H](CCC(N)=O)C(=O)O)[C@@H](C)O` [motilin, reference compound], under “Magnus method, from ED50, contraction activity of native motilin = 100%”, the “Activity in vitro (%)” value came out at 100%.
